Assay results taken from article PMC10992699, “Comparative structure activity and target exploration of 1,2-diphenylethynes in Haemonchus contortus and Caenorhabditis elegans” (International Journal for Parasitology: Drugs and Drug …, 2024).

Columns and labels:
PGP-1 = molecular target: T1, PGP-1 (Caenorhabditis elegans, UniProt P34712); assay: Thermal proteome profiling (TPP); type: binding; conditions: compound 50 μM, C. elegans lysate, 37-67 °C
T1 construct: from tissue; host or cells: whole-worm lysate of C. elegans N2 (young adults / L4s), NP-40 extract
T1 sequence (P34712 whole entry): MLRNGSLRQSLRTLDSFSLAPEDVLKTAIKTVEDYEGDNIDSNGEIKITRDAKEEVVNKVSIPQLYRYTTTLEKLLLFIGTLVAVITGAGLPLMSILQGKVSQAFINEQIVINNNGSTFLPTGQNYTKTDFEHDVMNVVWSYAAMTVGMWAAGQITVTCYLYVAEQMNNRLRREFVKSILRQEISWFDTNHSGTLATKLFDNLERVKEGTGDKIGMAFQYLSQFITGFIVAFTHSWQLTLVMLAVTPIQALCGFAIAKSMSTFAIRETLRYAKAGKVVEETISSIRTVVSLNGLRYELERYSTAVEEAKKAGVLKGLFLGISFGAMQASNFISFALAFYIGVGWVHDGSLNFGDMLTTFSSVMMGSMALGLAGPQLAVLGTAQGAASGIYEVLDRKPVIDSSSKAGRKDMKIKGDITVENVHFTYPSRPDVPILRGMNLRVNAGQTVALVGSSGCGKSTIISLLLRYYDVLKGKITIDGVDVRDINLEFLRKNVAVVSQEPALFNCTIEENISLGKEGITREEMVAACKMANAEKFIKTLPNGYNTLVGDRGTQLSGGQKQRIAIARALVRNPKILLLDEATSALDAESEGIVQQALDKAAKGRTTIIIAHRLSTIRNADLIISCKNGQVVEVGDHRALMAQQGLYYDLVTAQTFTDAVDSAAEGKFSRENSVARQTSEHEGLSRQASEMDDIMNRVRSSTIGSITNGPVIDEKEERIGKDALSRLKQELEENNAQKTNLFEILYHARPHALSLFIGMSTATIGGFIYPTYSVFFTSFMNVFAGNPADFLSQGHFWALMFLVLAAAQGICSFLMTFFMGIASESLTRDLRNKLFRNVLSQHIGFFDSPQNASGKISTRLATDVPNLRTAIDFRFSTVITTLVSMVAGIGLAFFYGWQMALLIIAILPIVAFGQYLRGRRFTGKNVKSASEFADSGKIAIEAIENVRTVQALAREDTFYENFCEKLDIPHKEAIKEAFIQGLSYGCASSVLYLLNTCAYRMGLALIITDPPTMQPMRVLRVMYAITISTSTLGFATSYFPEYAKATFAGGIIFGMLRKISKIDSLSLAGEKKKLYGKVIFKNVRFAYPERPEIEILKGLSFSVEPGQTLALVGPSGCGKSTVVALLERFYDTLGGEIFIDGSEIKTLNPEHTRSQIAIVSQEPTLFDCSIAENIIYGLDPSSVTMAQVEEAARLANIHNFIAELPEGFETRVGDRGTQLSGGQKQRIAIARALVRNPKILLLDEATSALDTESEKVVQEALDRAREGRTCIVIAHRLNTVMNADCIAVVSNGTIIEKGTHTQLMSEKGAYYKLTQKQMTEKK

[1] = test system: human hepatoma (HepG2) cells; assay: HepG2 mitotoxicity (galactose medium, crystal violet staining); type: cell-based; conditions: 48 h
Procedure: The mitotoxicity of UMW-9729 and six key derivatives (12, 14, 15, 16, 18 and 25) on human hepatoma (HepG2) cells was evaluated as described previously using an established protocol ([Swiss and Will, 2011]; [Kamalian et al., 2015]; [Śliwka et al., 2016]). Test compounds were serially-diluted (7-points, 2-fold serial dilution, 50 μM top concentration) in DMEM (Thermo Fisher Scientific, USA) with GlutaMax™ supplemented with 25 mM D-galactose, 10 % heat-inactivated FBS, 100 IU/mL of penicillin, 100 μg/mL of streptomycin and 0.25 μg/mL of amphotericin B (denoted DMEM*). Monepantel and moxidectin (prepared in the same manner as the test compounds) were included as reference compounds. M-666 ([…]; [Le et al., 2018]) was used as a positive control; 0.25 % DMSO was used as a negative control. HepG2 cells were seeded into wells of a 96-well plate in 80 μL of DMEM* (at 1 × 10^5 cells per well) and allowed to adhere for 16 h (5 % (v/v) CO2, 37 °C, >90% humidity)prior to incubation with individual compounds, at a final volume of 100 μL. […] Following 48 h of incubation with compounds, cell viability was determined by crystal violet staining ([Śliwka et al., 2016]). The absorbance (595 nm) of treated cells was normalised using the negative-controls to calculate the cell viability. […]

C. elegans young adults = assay: C. elegans young adult motility dose-response assay; type: cell-based, Caenorhabditis elegans; conditions: Caenorhabditis elegans, 40 h, young adults; 40 h incubation; three independent assays in triplicate; read-out: Worm motility IC50 ± SD, C. elegans young adults
Procedure: The eggs were then washed five times with 15 mL of sterile M9 buffer (centrifugation at 500×g, 2 min). […] were collected from plates and washed twice with sterile M9 buffer by centrifugation (500×g, 2 min) to remove E. coli OP50, and then resuspended to a concentration of 100 larvae per 50 μL in sterile (autoclaved) LB*. The dose-response assay for C. elegans followed a well-established protocol ([Taki et al., 2021a]) and was employed to evaluate the potency of hit compounds against this nematode. […] Two compounds, monepantel (ZolvixTM; Elanco, Australia) and moxidectin ([…], France) were used as positive controls and prepared in the same manner as the test compounds. […] The test compounds and positive control compounds were arrayed in triplicate across individual flat-bottom 96-well microplates (cat. no. 3596; Corning, Corning, NY, USA), with six wells on each plate containing the negative control. Added to each well were 100 C. elegans in 50 μL of LB* to give a final volume of 100 μL. Plates were then placed in an incubator ([…], model no. IMP180, Thermo Fisher Scientific, USA) at 20 °C for 40 h. […] Over 15 min, disturbance of an infrared beam in individual wells was recorded as an 'activity count'. Raw 'activity counts' for each well were normalised to the negative controls. The compound concentrations were log10-transformed and fitted using a variable slope four-parameter equation, using the ordinary least squares fit model, employing the program Prism (v.9.1.0 GraphPad Software, San Diego, CA, USA).

[2] = HepG2 cytotoxicity (CellTiter-Glo); type: cell-based; conditions: human, HepG2 cells, read-out: half-maximal cytotoxic concentration (CC50)
Procedure: The cytotoxicity of UMW-9729 and six key derivatives (12, 14, 15, 16, 18 and 25) on human hepatoma (HepG2) cells was evaluated as described previously ([Gilson et al., 2017]). In short, HepG2 cells were first cultured (in an incubator at 5 % (v/v) CO2, 37 °C, >90 % humidity) in Dulbecco's modified Eagle's medium (DMEM) supplemented with 5 % foetal bovine serum (FBS). Test compounds were serially-diluted (10-points, 2-fold serial dilution, top concentration of 50 μM) in DMEM + 10 % FBS, adjusted to a 0.5 % DMSO concentration and arrayed across a 384-well plate. Bortezomib (10 μM) was used as a positive control; 0.5 % DMSO was used as a negative control. HepG2 cells (1 × 10^3 cells per 50 μL of DMEM + 10 % FBS) were then seeded into wells of the assay plate; plates were the incubated (5 % (v/v) CO2, 37 °C, >90 % humidity) for 48 h. Cell proliferation was subsequently determined using CellTiter-Glo (Promega) and normalised using the negative-controls to calculate as a percentage. All compounds were tested in duplicate. The half-maximal cytotoxic (CC50) values were calculated by the Dotmatics (v.5.3) and Spotfire (v.7.11.1) software using a nonlinear regression four-parameter fit analysis.

## C(#Cc1ccc(-c2ccn[nH]2)cc1)c1ccccc1 [UMW-9729]
PGP-1; NPARC
  F-statistic: 27.4
PGP-1
  thermal stability of protein in the presence of compound: stabilised
[1]
  half-maximal mitotoxic concentration (MC50): > 40 µM
C. elegans young adults
  IC50: 14 ± 2.9 µM
[2]
  CC50 at 48 h: > 40 µM
